How the values were obtained:
LOX IMVI = assay: NCI 60 screen, LOX IMVI; assay type: cell-based; settings: Homo sapiens, Melanoma
Method: (§1) The compounds synthesized were tested at the National Cancer Institute (NCI) for anti-proliferative activity in the 60 human tumor cell line assay.

UACC-62 = assay: NCI 60 screen, UACC-62; assay type: cell-based; settings: Homo sapiens, Melanoma
Method: as §1

UACC-257 = assay: NCI 60 screen, UACC-257; assay type: cell-based; settings: Homo sapiens, Melanoma
Method: as §1

HCT-116 = assay: NCI 60 screen, HCT-116; assay type: cell-based; settings: Homo sapiens, Colon
Method: as §1

MDA-MB-468 = assay: NCI 60 screen, MDA-MB-468; assay type: cell-based; settings: Homo sapiens, Breast
Method: as §1

NCI-460 = assay: NCI 60 screen, NCI-460; assay type: cell-based; settings: Homo sapiens, Non-Small Cell Lung
Method: as §1

UO-31 = assay: NCI 60 screen, UO-31; assay type: cell-based; settings: Homo sapiens, Renal
Method: as §1

DU-145 = assay: NCI 60 screen, DU-145; assay type: cell-based; settings: Homo sapiens, Prostatic
Method: as §1

HCC-2998 = assay: NCI 60 screen, HCC-2998; assay type: cell-based; settings: Homo sapiens, Colon
Method: as §1

SK-OV-3 = assay: NCI 60 screen, SK-OV-3; assay type: cell-based; settings: Homo sapiens, Ovarian
Method: as §1

RXF393 = assay: NCI 60 screen, RXF393; assay type: cell-based; settings: Homo sapiens, RXF 393, Renal
Method: as §1

KM12 = assay: NCI 60 screen, KM12; assay type: cell-based; settings: Homo sapiens, Colon
Method: as §1

786-0 = assay: NCI 60 screen, 786-0; assay type: cell-based; settings: Homo sapiens, Renal
Method: as §1

SK-MEL-2 [1] = assay: NCI 60 screen, SK-MEL-2 (first line); assay type: cell-based; settings: Homo sapiens; Melanoma, SK-MEL-2 (first of two lines so named, r37)
Method: as §1

MALME-3M = assay: NCI 60 screen, MALME-3M; assay type: cell-based; settings: Homo sapiens, Melanoma
Method: as §1

NCI-H23 = assay: NCI 60 screen, NCI-H23; assay type: cell-based; settings: Homo sapiens, Non-Small Cell Lung
Method: as §1

OVCAR-5 = assay: NCI 60 screen, OVCAR-5; assay type: cell-based; settings: Homo sapiens, Ovarian
Method: as §1

SF-268 = assay: NCI 60 screen, SF-268; assay type: cell-based; settings: Homo sapiens, CNS
Method: as §1

NCI/ADR-RES = assay: NCI 60 screen, NCI/ADR-RES; assay type: cell-based; settings: Homo sapiens, Ovarian
Method: as §1

MCF7 = assay: NCI 60 screen, MCF7; assay type: cell-based; settings: Homo sapiens, Breast
Method: as §1

MDA-MB-231/ATCC = assay: NCI 60 screen, MDA-MB-231/ATCC; assay type: cell-based; settings: Homo sapiens, Breast
Method: as §1

SK-MEL-5 = assay: NCI 60 screen, SK-MEL-5; assay type: cell-based; settings: Homo sapiens, Melanoma
Method: as §1

SNB-75 = assay: NCI 60 screen, SNB-75; assay type: cell-based; settings: Homo sapiens, CNS
Method: as §1

A498 = assay: NCI 60 screen, A498; assay type: cell-based; settings: Homo sapiens, Renal
Method: as §1

SF-539 = assay: NCI 60 screen, SF-539; assay type: cell-based; settings: Homo sapiens, CNS
Method: as §1

SN12C = assay: NCI 60 screen, SN12C; assay type: cell-based; settings: Homo sapiens, Renal
Method: as §1

ACHN = assay: NCI 60 screen, ACHN; assay type: cell-based; settings: Homo sapiens, Renal
Method: as §1

OVCAR-8 = assay: NCI 60 screen, OVCAR-8; assay type: cell-based; settings: Homo sapiens, Ovarian
Method: as §1

HT29 = assay: NCI 60 screen, HT29; assay type: cell-based; settings: Homo sapiens, HT-29, Colon
Method: as §1

HOP-62 = assay: NCI 60 screen, HOP-62; assay type: cell-based; settings: Homo sapiens, Non-Small Cell Lung
Method: as §1

HL-60(TB) = assay: NCI 60 screen, HL-60(TB); assay type: cell-based; settings: Homo sapiens, Leukemia
Method: as §1

MOLT-4 = assay: NCI 60 screen, MOLT-4; assay type: cell-based; settings: Homo sapiens, Leukemia
Method: as §1

SNB-19 = assay: NCI 60 screen, SNB-19; assay type: cell-based; settings: Homo sapiens, CNS
Method: as §1

PC-3 = assay: NCI 60 screen, PC-3; assay type: cell-based; settings: Homo sapiens, Prostatic
Method: as §1

T-47D = assay: NCI 60 screen, T-47D; assay type: cell-based; settings: Homo sapiens, T47D, Breast
Method: as §1

NCI-H226 = assay: NCI 60 screen, NCI-H226; assay type: cell-based; settings: Homo sapiens, Non-Small Cell Lung
Method: as §1

HCT15 = assay: NCI 60 screen, HCT15; assay type: cell-based; settings: Homo sapiens, HCT-15, Colon
Method: as §1

CAKI-1 = assay: NCI 60 screen, CAKI-1; assay type: cell-based; settings: Homo sapiens, Renal
Method: as §1

TK-10 = assay: NCI 60 screen, TK-10; assay type: cell-based; settings: Homo sapiens, Renal
Method: as §1

IGROV1 = assay: NCI 60 screen, IGROV1; assay type: cell-based; settings: Homo sapiens, IGROV-1, Ovarian
Method: as §1

HOP-92 = assay: NCI 60 screen, HOP-92; assay type: cell-based; settings: Homo sapiens, Non-Small Cell Lung
Method: as §1

OVCAR-3 = assay: NCI 60 screen, OVCAR-3; assay type: cell-based; settings: Homo sapiens, Ovarian
Method: as §1

RPMI-8226 = assay: NCI 60 screen, RPMI-8226; assay type: cell-based; settings: Homo sapiens, Leukemia
Method: as §1

HS 578T = assay: NCI 60 screen, HS 578T; assay type: cell-based; settings: Homo sapiens, Breast
Method: as §1

SF-295 = assay: NCI 60 screen, SF-295; assay type: cell-based; settings: Homo sapiens, CNS
Method: as §1

A549/ATCC = assay: NCI 60 screen, A549/ATCC; assay type: cell-based; settings: Homo sapiens, Non-Small Cell Lung
Method: as §1

OVCAR-4 = assay: NCI 60 screen, OVCAR-4; assay type: cell-based; settings: Homo sapiens, Ovarian
Method: as §1

NCI-322M = assay: NCI 60 screen, NCI-322M; assay type: cell-based; settings: Homo sapiens, Non-Small Cell Lung
Method: as §1

BT-549 = assay: NCI 60 screen, BT-549; assay type: cell-based; settings: Homo sapiens, Breast
Method: as §1

CCRF-CEM = assay: NCI 60 screen, CCRF-CEM; assay type: cell-based; settings: Homo sapiens, Leukemia
Method: as §1

NCI-H522 = assay: NCI 60 screen, NCI-H522; assay type: cell-based; settings: Homo sapiens, Non-Small Cell Lung
Method: as §1

MDA-MB-435 = assay: NCI 60 screen, MDA-MB-435; assay type: cell-based; settings: Homo sapiens, Melanoma
Method: as §1

EKVX = assay: NCI 60 screen, EKVX; assay type: cell-based; settings: Homo sapiens, Non-Small Cell Lung
Method: as §1

COLO 205 = assay: NCI 60 screen, COLO 205; assay type: cell-based; settings: Homo sapiens, Colon
Method: as §1

SK-MEL-2 [2] = assay: NCI 60 screen, SK-MEL-2 (second line); assay type: cell-based; settings: Homo sapiens; Melanoma, SK-MEL-2 (second of two lines so named, r38)
Method: as §1

U251 = assay: NCI 60 screen, U251; assay type: cell-based; settings: Homo sapiens, U-251, CNS
Method: as §1

SW-620 = assay: NCI 60 screen, SW-620; assay type: cell-based; settings: Homo sapiens, Colon
Method: as §1

M14 = assay: NCI 60 screen, M14; assay type: cell-based; settings: Homo sapiens, Melanoma
Method: as §1

SR = assay: NCI 60 screen, SR; assay type: cell-based; settings: Homo sapiens, Leukemia
Method: as §1

K-562 = assay: NCI 60 screen, K-562; assay type: cell-based; settings: Homo sapiens, K562, Leukemia
Method: as §1

Cn1ccnc1C(=O)/C=C/c1ccc(CC(=O)Nc2ccc(Cl)cc2)cc1 [Compound 30, (E)-N-(4-chlorophenyl)-2-(4-(3-(1-methyl-1H-imidazol-2-yl)-3-oxoprop-1-en-1-yl)phenyl)acetamide]
GI50 (LOX IMVI): 1070 nM
GI50 (UACC-62): 6500 nM
GI50 (UACC-257): 25000 nM
GI50 (HCT-116): 1310 nM
GI50 (MDA-MB-468): 1030 nM
GI50 (NCI-460): 1580 nM
GI50 (UO-31): 2270 nM
GI50 (DU-145): 1420 nM
GI50 (HCC-2998): 3420 nM
GI50 (SK-OV-3): 8790 nM
GI50 (RXF393): 2970 nM
GI50 (KM12): 1510 nM
GI50 (786-0): 1600 nM
GI50 (SK-MEL-2 [1]): 25000 nM
GI50 (MALME-3M): 14200 nM
GI50 (NCI-H23): 2040 nM
GI50 (OVCAR-5): 9980 nM
GI50 (SF-268): 1240 nM
GI50 (NCI/ADR-RES): 2220 nM
GI50 (MCF7): 891 nM
GI50 (MDA-MB-231/ATCC): 5230 nM
GI50 (SK-MEL-5): 14400 nM
GI50 (SNB-75): 1900 nM
GI50 (A498): 25000 nM
GI50 (SF-539): 6400 nM
GI50 (SN12C): 3040 nM
GI50 (ACHN): 15000 nM
GI50 (OVCAR-8): 3490 nM
GI50 (HT29): 889 nM
GI50 (HOP-62): 2160 nM
GI50 (HL-60(TB)): 4810 nM
GI50 (MOLT-4): 1740 nM
GI50 (SNB-19): 1770 nM
GI50 (PC-3): 1370 nM
GI50 (T-47D): 4300 nM
GI50 (NCI-H226): 7420 nM
GI50 (HCT15): 999 nM
GI50 (CAKI-1): 13500 nM
GI50 (TK-10): 12300 nM
GI50 (IGROV1): 5270 nM
GI50 (HOP-92): 2500 nM
GI50 (OVCAR-3): 1030 nM
GI50 (RPMI-8226): 959 nM
GI50 (HS 578T): 15700 nM
GI50 (SF-295): 7390 nM
GI50 (A549/ATCC): 1150 nM
GI50 (OVCAR-4): 2180 nM
GI50 (NCI-322M): 3990 nM
GI50 (BT-549): 3530 nM
GI50 (CCRF-CEM): 1460 nM
GI50 (NCI-H522): 4850 nM
GI50 (MDA-MB-435): 9150 nM
GI50 (EKVX): 1560 nM
melting point: 250 °C
GI50 (COLO 205): 9440 nM
GI50 (SK-MEL-2 [2]): 25000 nM
GI50 (U251): 1100 nM
GI50 (SW-620): 1250 nM

O=C(Cc1ccc(/C=C/C(=O)c2ncc[nH]2)cc1)Nc1ccc(F)cc1 [Compound 22, (E)-2-(4-(3-(1H-imidazol-2-yl)-3-oxoprop-1-en-1-yl)phenyl)-N-(4-fluorophenyl)acetamide]
GI50 (LOX IMVI): 1070 nM
GI50 (M14): 5980 nM
GI50 (UACC-62): 5920 nM
GI50 (UACC-257): 8670 nM
GI50 (HCT-116): 1890 nM
GI50 (MDA-MB-468): 970 nM
GI50 (NCI-460): 1720 nM
GI50 (UO-31): 2640 nM
GI50 (DU-145): 1190 nM
GI50 (HCC-2998): 5430 nM
GI50 (SK-OV-3): 9380 nM
GI50 (RXF393): 3440 nM
GI50 (KM12): 2100 nM
GI50 (786-0): 1370 nM
GI50 (SK-MEL-2 [1]): 7470 nM
GI50 (MALME-3M): 7860 nM
GI50 (NCI-H23): 1910 nM
GI50 (OVCAR-5): 2600 nM
GI50 (SF-268): 5100 nM
GI50 (NCI/ADR-RES): 7180 nM
GI50 (SR): 1110 nM
GI50 (MCF7): 990 nM
GI50 (MDA-MB-231/ATCC): 1830 nM
GI50 (SK-MEL-5): 6060 nM
GI50 (SNB-75): 1110 nM
GI50 (A498): 8930 nM
GI50 (SF-539): 840 nM
GI50 (SN12C): 2930 nM
GI50 (ACHN): 4820 nM
GI50 (OVCAR-8): 5080 nM
GI50 (HT29): 1150 nM
GI50 (HOP-62): 2640 nM
GI50 (HL-60(TB)): 1660 nM
GI50 (MOLT-4): 5740 nM
GI50 (SNB-19): 1580 nM
GI50 (PC-3): 2800 nM
GI50 (T-47D): 3330 nM
GI50 (NCI-H226): 9850 nM
GI50 (HCT15): 1150 nM
GI50 (TK-10): 7890 nM
GI50 (IGROV1): 2660 nM
GI50 (HOP-92): 9110 nM
GI50 (OVCAR-3): 1700 nM
GI50 (RPMI-8226): 1270 nM
GI50 (HS 578T): 2330 nM
GI50 (SF-295): 4740 nM
GI50 (K-562): 1300 nM
GI50 (A549/ATCC): 6940 nM
GI50 (OVCAR-4): 9140 nM
GI50 (NCI-322M): 3350 nM
GI50 (BT-549): 2730 nM
GI50 (CCRF-CEM): 1680 nM
GI50 (NCI-H522): 3380 nM
GI50 (MDA-MB-435): 4070 nM
GI50 (EKVX): 7460 nM
GI50 (COLO 205): 4540 nM
GI50 (SK-MEL-2 [2]): 6260 nM
GI50 (U251): 1200 nM
GI50 (SW-620): 1430 nM

Source: patent US11098038B2, “Imidazole-based anticancer agents and derivatives thereof, and methods of making and using same” (The University of Toledo, priority 2017, dated 2021)
